Assay results taken from patent publication US5700819A, “2-substituted benzothiazole derivatives and prophylactic and therapeutic agents for the treatment of diabetic complications” (Grelan Pharmaceutical Co., Ltd., priority 1994, dated 1997).
Values belong to the compound of their own block, whether it stands above or below them.

Tests used:
[1] = tested on: Normal ICR mice; test: Safety Study; format: in vivo; details: 1000 mg/kg oral, single dose; observed 7 days; male ICR mice, 5/group
Description: The safety of the compounds of the present invention was confirmed according to the following experimental procedure.
Normal ICR mice (male, 7-week-old, 5 mice/group), fasted for 18 hours, received orally the compound each of Examples 1-ii), 5-ii), 19-ii), 21, 22-ii) and 23-ii) suspended in 0.5% carboxymethyl cellulose at a dose of 1000 mg/kg. Control groups received only 0.5% carboxymethyl cellulose orally. […] The mice were fed with diet and water ad libitum during the experiment.

[2] = tested on: sorbitol accumulation in tissues (sciatic nerve, lens) of experimental diabetic rats; test: Inhibitory Effect on Sorbitol Accumulation in the Tissues of Experimental Diabetic Rats (Therapeutic Effect); format: in vivo, Sprague-Dawley rats; details: 5 days, from 7 days after streptozotocin, control = 100%, ** P < 0.01 (Tukey); for Sorbitol Accumulation, Nerve: sciatic nerve
Description: 4) Inhibitory Effect on Sorbitol Accumulation in the Tissues of Experimental Diabetic Rats (Therapeutic Effect)
Sprague-Dawley rats (male, 6-week-old, 5 to 6 rats/group), fasted for 18 hours, were made diabetic by injecting streptozotocin (Sigma) at a dose of 60 mg/kg body weight into the tail vein thereof. From 7 days after the streptozotocin injection, a sample compound suspended in 0.5% carboxymethyl cellulose was administered orally to the rats at a dose between 1 and 10 mg/kg once daily for 5 consecutive days. The rats were fed with diet and water ad libitum during the experiment. Three hours after the final administration, the sorbitol contents in the tissues (sciatic nerve, lens) was assayed enzymatically using SDH (sorbitol dehydrogenase) and NAD (β-nicotinamide adenine dinucleotide) according to the method by H. U. Bergmeyer et al. (Methods of Enzymatic Analysis, 3, p. 1323-1330 (1974)). The sorbitol contents in control groups to which 0.5% carboxymethyl cellulose was administered instead of sample compounds is expressed as 100%.

[3] = target: T1, Aldose reductase (Sus scrofa, UniProt P80276); test: Aldose Reductase Inhibition; format: biochemical; details: porcine lens aldose reductase; DL-glyceraldehyde 3 mM, NADPH 0.1 mM, pH 6.2, 37° C.
T1 construct: Aldose reductase samples were prepared from porcine lens; from tissue; host or cells: porcine lens
Description: Aldose reductase samples were prepared from porcine lens according the method by S. Hayman et al., (Journal of Biological Chemistry, 240, p. 877-882 (1965)). In brief, lens of porcine eyes were frozen (-80° C.) until employed. These lenses were homogenized with distilled water and then centrifuged at 10,000×g for 15 minutes. The supernatant was fractionated with 0 to 40% ammonium sulfate and centrifuged at 10,000×g for 10 minutes. The resultant supernatant was dialyzed overnight against 0.05M sodium chloride. The dialyzed solution was used as an aldose reductase sample. (Assay of Enzymatic Activity) Aldose reductase activity was assayed according to the aforementioned method by S. Hayman et al. In brief, to 200 μl of 40 mM phosphate buffer (pH 6.2) containing lithium sulfate, 0.4M (final concentration); NADPH (reduced nicotinamide adenine dinucleotide phosphate), 0.1 mM (final concentration); and DL-glyceraldehyde as a substrate, 3 mM (final concentration) was added 25 μl of the aldose reductase solution obtained by the aforementioned method and 25 μl of 1% DMSO solutions containing a sample inhibitor compound with different concentrations. The mixtures were incubated at 37° C. for 2 minutes for reaction and changes in the absorbance at 340 nm were read using an auto-analyzer (Hitachi Corporation, Model 7070, Japan). The change in the absorbance of a mixed solution including 1% DMSO instead of sample compounds was expresses as 100%. […] IC50 (M) means the concentration of the compounds, required for 50% inhibition of aldose reductase activity.

[4] = tested on: sorbitol accumulation in tissues (sciatic nerve, lens) of experimental diabetic rats; test: Inhibitory Effect on Sorbitol Accumulation in the Tissues of Experimental Diabetic Rats (Prophylactic effect); format: in vivo, Sprague-Dawley rats; details: control = 100%, ** P < 0.01 (Tukey); for Sorbitol Accumulation, Nerve: sciatic nerve
Description: 2) Inhibitory Effect on Sorbitol Accumulation in the Tissues of Experimental Diabetic Rats (Prophylactic effect)
Sprague-Dawley rats (male, 6-week-old, 5-6 rats/group), fasted for 18 hours, were made diabetic by a single intravenous (tail vein) injection of 60 mg/kg body weight of streptozotocin (Sigma). Four, eight and twenty four hours after the injection of streptozotocin, respectively, a sample compound suspended in 0.5% carboxymethyl cellulose was administered orally to the rats at a dose of 10 or 30 mg/kg. The rats were fed with diet and water ad libitum during the experiment. Three hours after the final administration, the sorbitol contents in the tissues (sciatic nerve, lens) was assayed enzymatically using SDH (sorbitol dehydrogenase) and NAD (β-nicotinamide adenine dinucleotide) according to the method by H. U. Bergmeyer et al. (Methods of Enzymatic Analysis, 3, p. 1323-1330 (1974)). The sorbitol contents in control groups to which 0.5% carboxymethyl cellulose was administered instead of sample compounds is expressed as 100%.

[5] = 30 mg/kg oral, 4, 8 and 24 h after streptozotocin
[6] = 10 mg/kg oral, 4, 8 and 24 h after streptozotocin

Structure (SMILES): Cc1cc(CC(=O)O)cc(Cc2nc3c(F)c(F)ccc3s2)c1 [23-ii), 3-[(4,5-difluorobenzothiazol-2-yl)methyl]-5-methylphenylacetic acid]
mortality [1]: No animal died

Structure (SMILES): O=C(O)Cc1cccc(Cc2nc3c(F)c(F)cc(F)c3s2)c1 [Example 1-ii), 3-[(4,5,7-trifluorobenzothiazol-2-yl)methyl]phenylacetic acid]
Sorbitol Accumulation, Lens ([2]; 10 mg/kg oral once daily): 68% | Sorbitol Accumulation, Nerve ([2]; 10 mg/kg oral once daily): 2% | IC50 [3]: 6.6 nM | Sorbitol Accumulation, Lens [4, 5]: 4% | Sorbitol Accumulation, Nerve [4, 5]: 0%

Structure (SMILES): O=C(O)CN(C(=O)CCc1nc2c(F)c(F)cc(F)c2s1)c1ccccc1 [Example 4-ii), N-[3-(4,5,7-trifluorobenzothiazol-2-yl)propionyl]-N-phenylglycine]
IC50 [3]: 8.3 nM | Sorbitol Accumulation, Lens [4, 5]: 20% | Sorbitol Accumulation, Nerve [4, 5]: 46%

Structure (SMILES): O=C(O)Cc1ccccc1Cc1nc2c(F)c(F)cc(F)c2s1 [Example 20-ii), 2-[(4,5,7-trifluorobenzothiazol-2-yl)methyl]phenylacetic acid]
IC50 [3]: 19 nM | Sorbitol Accumulation, Lens [4, 6]: 63% | Sorbitol Accumulation, Nerve [4, 6]: 15%

Structure (SMILES): O=C(O)Cc1cccc(Cc2nc3c(F)c(F)ccc3s2)c1Cl [Example 24-ii), 3-[(4,5-difluorobenzothiazol-2-yl)methyl]-2-chlorophenylacetic acid]
Sorbitol Accumulation, Lens ([2]; 10 mg/kg oral once daily): 26% | Sorbitol Accumulation, Nerve ([2]; 10 mg/kg oral once daily): 11%

Structure (SMILES): O=C(O)Cc1cccc(Cc2nc3c(F)c(F)cc(F)c3s2)c1Cl [Example 25-ii), 3-[(4,5,7-trifluorobenzothiazol-2-yl)methyl]-2-chlorophenylacetic acid]
Sorbitol Accumulation, Lens ([2]; 1 mg/kg oral once daily): 47% | Sorbitol Accumulation, Nerve ([2]; 1 mg/kg oral once daily): 0%

Structure (SMILES): O=C(O)Cc1cc(Br)cc(Cc2nc3c(F)c(F)cc(F)c3s2)c1 [Example 28-ii), 3-[(4,5,7-trifluorobenzothiazol-2-yl)methyl]-5-bromophenylacetic acid]
IC50 [3]: 9.4 nM

The next lines start with results.

IC50 [3]: 13 nM
Structure (SMILES): CN(CC(=O)O)C(=O)CCc1nc2c(F)c(F)cc(F)c2s1 [Example 3-iii), N-[3-(4,5,7-trifluorobenzothiazol-2-yl)propionyl]-N-methylglycine]

IC50 [3]: 9.7 nM
Structure (SMILES): O=C(O)CN(Cc1ccccc1)C(=O)CCc1nc2c(F)c(F)cc(F)c2s1 [Example 5-ii), N-benzyl-N-[3-(4,5,7-trifluorobenzothiazol-2-yl)propionyl]glycine]

IC50 [3]: 23 nM
Structure (SMILES): O=C(O)CN(Cc1ccccc1)C(=S)CCc1nc2c(F)c(F)cc(F)c2s1 [Example 8-ii), N-benzyl-N-[3-(4,5,7-trifluorobenzothiazol-2-yl)-1-thioxopropyl]glycine]

IC50 [3]: 14 nM
Structure (SMILES): O=C(O)CCCCSc1nc2c(F)c(F)cc(F)c2s1 [Example 15-ii), 5-(4,5,7-trifluorobenzothiazol-2-ylthio)pentanoic acid]

IC50 [3]: 12 nM
Structure (SMILES): O=C(O)Cc1cccc(Cc2nc3c(Cl)c(Cl)ccc3s2)c1 [Example 19-ii), 3-[(4,5-dichlorobenzothiazol-2-yl)methyl]phenylacetic acid]

IC50 [3]: 6.7 nM
Structure (SMILES): O=C(O)Cc1cccc(Cc2nc3c(F)c(F)ccc3s2)c1 [Example 21, 3-[(4,5-difluorobenzothiazol-2-yl)methyl]phenylacetic acid]
Sorbitol Accumulation, Lens [4, 6]: 40% | Sorbitol Accumulation, Nerve [4, 6]: 0%

IC50 [3]: 9.6 nM
Structure (SMILES): Cc1cc(CC(=O)O)cc(Cc2nc3c(F)c(F)cc(F)c3s2)c1 [Example 22-ii), 3-[(4,5,7-trifluorobenzothiazol-2-yl)methyl]-5-methylphenylacetic acid]
Sorbitol Accumulation, Lens ([2]; 3 mg/kg oral once daily): 25% | Sorbitol Accumulation, Nerve ([2]; 3 mg/kg oral once daily): 2% | Sorbitol Accumulation, Lens [4, 6]: 41% | Sorbitol Accumulation, Nerve [4, 6]: 0%

IC50 [3]: 8.7 nM
Structure (SMILES): O=C(O)Cc1cc(Cc2nc3c(F)c(F)cc(F)c3s2)cc(C(=O)O)c1 [Example 30-ii), 3-[(4,5,7-trifluorobenzothiazol-2-yl)methyl]-5-carboxymethylbenzoic acid]

IC50 [3]: 6.7 nM
Structure (SMILES): CN(C)c1cc(CC(=O)O)cc(Cc2nc3c(F)c(F)cc(F)c3s2)c1 [Example 31-ii), 3-[(4,5,7-trifluorobenzothiazol-2-yl)methyl]-5-dimethylaminophenylacetic acid]
Sorbitol Accumulation, Lens ([2]; 3 mg/kg oral once daily): 77% | Sorbitol Accumulation, Nerve ([2]; 3 mg/kg oral once daily): 1%

IC50 [3]: 8.4 nM
Structure (SMILES): O=C(O)CN(C(=S)CCc1nc2c(F)c(F)cc(F)c2s1)c1ccccc1 [Example 32-ii), N-[3-(4,5,7-trifluorobenzothiazol-2-yl)-1-thioxopropionyl]-N-phenylglycine]
